The record followed here is patent publication US8912200B2, “Alkynyl substituted pyrimidinyl-pyrroles active as kinases inhibitors” (Nerviano Medical Sciences S.R.L., priority 2011, dated 2014).

SMILES strings stand for the structures.

The target of one assay is T1, Lyn full length (Homo sapiens, UniProt P07948).
T1 construct: The assay has been performed using Lyn full length
Nature of the assay: Biochemical assay for inhibitors of Lyn (Src family) kinase activity. The following applies: Lyn full length 1 nM, 25 μM ATP. The source says:
Biochemical Assay for Inhibitors of Lck and Lyn (Src Family) Kinases Activity
Specific Lck and Lyn substrates are trans-phosphorylated by Lck and Lyn kinases in the presence of ATP traced with 33P-γ-ATP. At the end of the phosphorylation reaction, the unreacted ATP, cold and radioactive, is captured by an excess of dowex ion exchange resin that eventually settles by gravity to the bottom of the reaction plate. The supernatant is subsequently withdrawn and transferred into a counting plate that is then evaluated by β-counting.
Lyn Specific Assay Conditions
The assay has been performed using Lyn full length (accession number P07948 of UniProtKB/Swiss-Prot database).
Kinase buffer was composed of 50 mM HEPES pH 7.5 containing 3 mM MgCl2, 1 mM DTT, 3 μM Na3VO4, and 0.2 mg/mL BSA.
The Lyn kinase assay was run with a final enzyme concentration of 1 nM, in the presence of 25 μM ATP, 1.5 nM 33P-γ-ATP and 250 μM of substrate ABI 1 (Aminoacid sequence: EAIYAAPFAKKK—SEQ ID NO: 3). The peptidic substrate was purchased from American Peptide Company (Sunnyvale, Calif.).
For IC50 determination, test compounds are received as a 1 mM solution in 100% DMSO, distributed into 96 well plates: compounds are then plated into the first column of a microtiter plate (A1 to G1), 100 μL/well.
An automated station for serial dilutions (Biomek FX, Beckman) is used for producing 1:3 dilutions in 100% DMSO, from line A1 to A10, and for all the compounds in the column. Moreover, 4-5 copies of daughter plates are prepared by reformatting 5 μL of this first set of 100% DMSO dilution plates into 384 deep well-plates: one of these plates with the serial dilutions of test compounds will be thawed the day of the experiments, reconstituted at a 3× concentration with water and used in the IC50 determination assays. In a standard experiment, the highest concentration (3×) of all compounds is 30 μM, while the lowest one is 1.5 nM. Each 384 well-plate will contain at least one curve of the standard inhibitor staurosporine and reference wells (total enzyme activity vs. no enzymatic activity) for the Z′ and signal to background evaluation.
384-well plates, V bottom (test plates) are prepared with 5 μL of the compound dilution (3×) and then placed onto a PlateTrak 12 robotized station (Perkin Elmer; the robot has one 384-tip pipetting head for starting the assay plus one 96-tip head for dispensing the resin) together with one reservoir for the Enzyme mix (3×) and one for the ATP mix (3×). At the start of the run, the robot aspirates 5 μL of ATP mix, makes an air gap inside the tips (3 μl) and aspirates 5 μL of JAK2 mix. The following dispensation into the plates plus 3 cycles of mixing, done by the robot itself, starts the kinase reaction. At this point, the correct concentrations are restored for all the reagents. The robot incubates the plates for 60 minutes at room temperature, and then stops the reaction by pipetting 60 μL of dowex resin suspension into the reaction mix. In order to avoid tip clogging, wide bore tips are used to dispense the resin suspension. Three cycles of mixing are done immediately after the addition of the resin. Another mixing cycle is performed after all the plates are stopped, this time using normal tips: the plates are then allowed to rest for about one hour in order to allow resin sedimentation. At this point, 27 μL of the supernatant are transferred into 384-Optiplates (Perkin-Elmer), with 50 μL of Microscint 40 (Perkin-Elmer); after 5 min of orbital shaking the plates are read on a Perkin-Elmer Top Count radioactivity counter.
Data are analyzed by an internally customized version of the SW package “Assay Explorer” that provides sigmoidal fitting of the ten-dilutions curves for IC50 determination in the secondary assays/hit confirmation routines.

The target in the next assay is T2, JAK2 kinase domain (Homo sapiens, UniProt O60674).
T2 construct: commercially available JAK2 kinase domain; purchased Invitrogen, Eugene, Oreg
Briefly: Biochemical assay for inhibitors of JAK kinase activity (JAK2, 33P-γ-ATP/dowex resin). The following applies: JAK2 kinase domain 1 nM, 60 μM ATP. In outline: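 Human JAK2 (1 nM) phosphorylated peptide BioDBn*306 (64 μM) with 60 μM ATP plus 3 nM 33P-γ-ATP in HEPES pH 7.5/MgCl2/DTT buffer, 60 min at room temperature. Unreacted ATP captured by Dowex resin; supernatant β-counted. IC50 from sigmoidal fit of ten-point 1:3 dilution curves.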

The test system of assay [1] is JAK2 dependent human megakaryoblastic leukemia cell line SET-2. Briefly: Cell proliferation assay (CellTiter-Glo, 72 hours). In kind it is cell-based. The following applies: Homo sapiens, SET-2 cells. The procedure, abridged: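 About 5×10^3 SET-2 cells per well, in RPMI-1640 with 10% FBS, were exposed to inhibitor dilutions for 72 hours at 37 °C, 5% CO2. Viability read by CellTiter-Glo luminescence. IC50 from sigmoidal fitting of 8-point dilution curves.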
(In general: In ATP-based viability assays light output follows the ATP content of the culture.)

T1 sequence (P07948 whole entry): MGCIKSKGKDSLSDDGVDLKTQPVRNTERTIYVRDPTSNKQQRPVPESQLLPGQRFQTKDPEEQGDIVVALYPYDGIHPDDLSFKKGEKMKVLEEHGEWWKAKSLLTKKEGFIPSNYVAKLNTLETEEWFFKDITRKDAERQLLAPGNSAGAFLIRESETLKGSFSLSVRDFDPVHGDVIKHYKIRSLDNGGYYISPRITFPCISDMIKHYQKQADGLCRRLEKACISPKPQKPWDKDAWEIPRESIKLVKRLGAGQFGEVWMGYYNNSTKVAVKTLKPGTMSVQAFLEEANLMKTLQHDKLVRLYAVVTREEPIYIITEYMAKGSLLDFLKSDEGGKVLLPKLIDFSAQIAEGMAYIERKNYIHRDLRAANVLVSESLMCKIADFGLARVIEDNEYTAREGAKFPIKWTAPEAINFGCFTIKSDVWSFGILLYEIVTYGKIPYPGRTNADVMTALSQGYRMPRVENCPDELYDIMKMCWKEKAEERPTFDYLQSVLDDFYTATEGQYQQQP
T2 sequence (O60674 849-1124 limits assumed): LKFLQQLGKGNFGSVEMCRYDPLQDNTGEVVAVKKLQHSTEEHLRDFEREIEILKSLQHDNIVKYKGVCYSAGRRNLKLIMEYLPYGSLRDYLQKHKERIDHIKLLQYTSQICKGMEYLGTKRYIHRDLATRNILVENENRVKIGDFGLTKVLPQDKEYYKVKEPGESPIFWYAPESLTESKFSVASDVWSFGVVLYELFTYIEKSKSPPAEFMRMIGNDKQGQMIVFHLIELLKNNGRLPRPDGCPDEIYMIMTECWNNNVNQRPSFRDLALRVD

With `Cc1ccc(Cl)cc1-c1[nH]c(-c2nc(N)ncc2C#Cc2ccc(CN3CCCCC3)cc2)cc1C(N)=O` [compound 67, 5-(2-Amino-5-{[4-(piperidin-1-ylmethyl)phenyl]ethynyl}pyrimidin-4-yl)-2-(5-chloro-2-methylphenyl)-1H-pyrrole-3-carboxamide], the IC50 at Lyn full length was 1 nM; against JAK2 kinase domain, 1 nM; in assay [1] it was 190 nM.

Consider `Cc1ccc(Cl)cc1-c1[nH]c(-c2ccnc(N)n2)c(C#Cc2ccccc2)c1C(N)=O` [compound 69, 5-(2-Amino-pyrimidin-4-yl)-2-(5-chloro-2-methyl-phenyl)-4-phenylethynyl-1H-pyrrole-3-carboxamide], for which the IC50 against Lyn full length came out at 20 nM; against JAK2 kinase domain, 8 nM; in assay [1], 1450 nM.

For `Cc1ccc(Cl)cc1-c1[nH]c(-c2ccnc(N)n2)c(C#Cc2cccc(N)c2)c1C(N)=O` [compound 72, 4-[(3-Aminophenyl)ethynyl]-5-(2-aminopyrimidin-4-yl)-2-(5-chloro-2-methylphenyl)-1H-pyrrole-3-carboxamide], the IC50 was determined as 10 nM against Lyn full length, 2 nM at JAK2 kinase domain and 420 nM in assay [1].

Turning to `Cc1ccc(Cl)cc1-c1[nH]c(-c2ccnc(N)n2)c(C#Cc2ccc(N)cc2)c1C(N)=O` [compound 76, 4-[(4-Aminophenyl)ethynyl]-5-(2-amino-pyrimidin-4-yl)-2-(5-chloro-2-methyl-phenyl)-1H-pyrrole-3-carboxamide], the IC50 turned out to be 8 nM against Lyn full length, 3 nM against JAK2 kinase domain and 500 nM in assay [1].

`Cc1ccc(Cl)cc1-c1[nH]c(-c2ccnc(N)n2)c(C#Cc2cccc(CN3CCN(C)CC3)c2)c1C(N)=O` [compound 81, 5-(2-Aminopyrimidin-4-yl)-2-(5-chloro-2-methylphenyl)-4-({3-[(4-methylpiperazin-1-yl)methyl]phenyl}ethynyl)-1H-pyrrole-3-carboxamide]: the IC50 was 3 nM against Lyn full length, 6 nM at JAK2 kinase domain and 540 nM in assay [1].

For `Cc1ccc(Cl)cc1-c1[nH]c(-c2ccnc(N)n2)c(C#Cc2cccc(NCCN)c2)c1C(N)=O` [compound 82, 4-({3-[(2-Aminoethyl)amino]phenyl}ethynyl)-5-(2-aminopyrimidin-4-yl)-2-(5-chloro-2-methylphenyl)-1H-pyrrole-3-carboxamide], the IC50 stood at 11 nM on Lyn full length, 7 nM against JAK2 kinase domain and 290 nM in assay [1].

As to `Cc1ccc(Cl)cc1-c1[nH]c(-c2ccnc(N)n2)c(C#Cc2ccc(N3CCN(C)CC3)cc2)c1C(N)=O` [compound 83, 5-(2-Aminopyrimidin-4-yl)-2-(5-chloro-2-methylphenyl)-4-{[4-(4-methylpiperazin-1-yl)phenyl]ethynyl}-1H-pyrrole-3-carboxamide], the IC50 turned out to be 9 nM against Lyn full length, 8 nM against JAK2 kinase domain and 510 nM in assay [1].

Take `COc1ccc(N2CCN(C)CC2)cc1C#Cc1c(-c2ccnc(N)n2)[nH]c(-c2cc(Cl)ccc2C)c1C(N)=O` [compound 86, 5-(2-Aminopyrimidin-4-yl)-2-(5-chloro-2-methylphenyl)-4-{[2-methoxy-5-(4-methylpiperazin-1-yl)phenyl]ethynyl}-1H-pyrrole-3-carboxamide]: the IC50 worked out at 1 nM against Lyn full length, 1 nM on JAK2 kinase domain and 210 nM in assay [1].

As to `Cc1ccc(Cl)cc1-c1[nH]c(-c2ccnc(N)n2)c(C#Cc2ccccc2NCCN(C)C)c1C(N)=O` [compound 87, 5-(2-Aminopyrimidin-4-yl)-2-(5-chloro-2-methylphenyl)-4-[(2-{[2-(dimethylamino)ethyl]amino}phenyl)ethynyl]-1H-pyrrole-3-carboxamide], the results for the IC50 (against Lyn full length; on JAK2 kinase domain; in assay [1]) were 24 nM, 13 nM and 290 nM, respectively.

As for `COc1cc(N2CCN(C)CC2)ccc1C#Cc1c(-c2ccnc(N)n2)[nH]c(-c2cc(Cl)ccc2C)c1C(N)=O` [compound 89, 5-(2-Aminopyrimidin-4-yl)-2-(5-chloro-2-methylphenyl)-4-{[2-methoxy-4-(4-methylpiperazin-1-yl)phenyl]ethynyl}-1H-pyrrole-3-carboxamide], the IC50 at Lyn full length turned out to be 4 nM; against JAK2 kinase domain, 6 nM; in assay [1], 260 nM.

Take `Cc1ccc(Cl)cc1-c1[nH]c(-c2ccnc(N)n2)c(C#Cc2cccc(N3CCN(C)CC3)c2)c1C(N)=O` [compound 90, 5-(2-Aminopyrimidin-4-yl)-2-(5-chloro-2-methylphenyl)-4-{[3-(4-methylpiperazin-1-yl)phenyl]ethynyl}-1H-pyrrole-3-carboxamide carboxamide]: the IC50 stood at 5 nM against Lyn full length, 3 nM against JAK2 kinase domain and 300 nM in assay [1].

Consider `Cc1ccc(Cl)cc1-c1[nH]c(-c2ccnc(N)n2)c(C#Cc2cccc(OC3CCN(C)CC3)c2)c1C(N)=O` [compound 91, 5-(2-Aminopyrimidin-4-yl)-2-(5-chloro-2-methylphenyl)-4-({3-[(1-methylpiperidin-4-yl)oxy]phenyl}ethynyl)-1H-pyrrole-3-carboxamide], for which the IC50 amounted to 114 nM against Lyn full length, 5 nM against JAK2 kinase domain and 260 nM in assay [1].

In the case of `Cc1ccc(Cl)cc1-c1[nH]c(-c2ccnc(N)n2)c(C#Cc2ccc(OC3CCN(C)CC3)cc2)c1C(N)=O` [compound 92, 5-(2-Aminopyrimidin-4-yl)-2-(5-chloro-2-methylphenyl)-4-({4-[(1-methylpiperidin-4-yl)oxy]phenyl}ethynyl)-1H-pyrrole-3-carboxamide], the half-inhibitory concentration (IC50) against Lyn full length turned out to be 39 nM; against JAK2 kinase domain, 5 nM; in assay [1], 220 nM.

Consider `Cc1ccc(Cl)cc1-c1[nH]c(-c2ccnc(N)n2)c(C#Cc2cc(N3CCN(C)CC3)ccc2F)c1C(N)=O` [compound 93, 5-(2-Aminopyrimidin-4-yl)-2-(5-chloro-2-methylphenyl)-4-{[2-fluoro-5-(4-methylpiperazin-1-yl)phenyl]ethynyl}-1H-pyrrole-3-carboxamide], for which the values for the IC50 (on Lyn full length; against JAK2 kinase domain; in assay [1]) were 93 nM, 5 nM and 230 nM, respectively.

Take `Cc1ccc(Cl)cc1-c1[nH]c(-c2ccnc(N)n2)c(C#Cc2ccccc2NC2CCN(C)CC2)c1C(N)=O` [compound 94, 5-(2-Aminopyrimidin-4-yl)-2-(5-chloro-2-methylphenyl)-4-({2-[(1-methylpiperidin-4-yl)amino]phenyl}ethynyl)-1H-pyrrole-3-carboxamide]: the IC50 stood at 661 nM against Lyn full length, 32 nM on JAK2 kinase domain and 290 nM in assay [1].

As for `Cc1ccc(Cl)cc1-c1[nH]c(-c2ccnc(N)n2)c(C#Cc2ccc(N3CCC(N4CCN(C)CC4)CC3)cc2)c1C(N)=O` [compound 95, 5-(2-Aminopyrimidin-4-yl)-2-(5-chloro-2-methylphenyl)-4-({4-[4-(4-methylpiperazin-1-yl)piperidin-1-yl]phenyl}ethynyl)-1H-pyrrole-3-carboxamide], the IC50 against Lyn full length was 281 nM; on JAK2 kinase domain it was 8 nM; in assay [1], 400 nM.

Broadly, the IC50 is the midpoint of a concentration-inhibition curve. A higher IC50 goes with weaker potency.
